Laboratory results from US20170107229A1, “SUBSTITUTED TETRAHYDROPYRIDOTHIENOPYRIMIDINES” (BAYER PHARMA AKTIENGESELLSCHAFT, priority 2014, published 2017).

molecular target: T1, human full-length MKNK1 (Homo sapiens, UniProt Q9BUB5, T385D); assay: MKNK1 kinase high ATP assay (TR-FRET); format: biochemical; conditions: high ATP (2 mM final), 15 min preincubation with enzyme, GST-MKNK1 (T344D)
T1 construct: GST (N); purchased Carna Biosciences 02-145; host or cells: insect cells (baculovirus expression system)
T1 sequence (Q9BUB5 1-424 isoform Q9BUB5-2 T344D): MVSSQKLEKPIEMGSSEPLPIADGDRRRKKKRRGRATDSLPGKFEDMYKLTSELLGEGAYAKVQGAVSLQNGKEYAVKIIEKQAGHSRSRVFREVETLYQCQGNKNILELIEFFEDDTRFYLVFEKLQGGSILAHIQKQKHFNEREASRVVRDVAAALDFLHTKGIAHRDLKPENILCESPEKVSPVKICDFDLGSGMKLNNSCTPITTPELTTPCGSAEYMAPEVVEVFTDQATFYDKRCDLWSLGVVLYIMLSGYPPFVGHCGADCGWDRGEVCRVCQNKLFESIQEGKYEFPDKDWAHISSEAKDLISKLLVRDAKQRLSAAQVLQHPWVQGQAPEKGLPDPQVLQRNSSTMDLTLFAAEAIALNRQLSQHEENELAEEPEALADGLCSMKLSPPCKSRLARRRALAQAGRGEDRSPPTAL
Method: MKNK1-inhibitory activity at high ATP of compounds of the present invention after their preincubation with MKNK1 was quantified employing the TR-FRET-based MKNK1 high ATP assay as described in the following paragraphs.
A recombinant fusion protein of Glutathione-S-Transferase (GST, N-terminally) and human full-length MKNK1 (amino acids 1-424 and T344D of accession number BAA 19885.1), expressed in insect cells using baculovirus expression system and purified via glutathione sepharose affinity chromatography, was purchased from Carna Biosciences (product no 02-145) and used as enzyme. As substrate for the kinase reaction the biotinylated peptide biotin-Ahx-IKKRKLTRRKSLKG (C-terminus in amide form) was used, which can be purchased e.g. from the company Biosyntan (Berlin-Buch, Germany).
For the assay 50 nL of a 100fold concentrated solution of the test compound in DMSO was pipetted into a black low volume 384well microtiter plate (Greiner Bio-One, Frickenhausen, Germany), 2 μL of a solution of MKNK1 in aqueous assay buffer [50 mM HEPES pH 7.5, 5 mM MgCl2, 1.0 mM dithiothreitol, 0.005% (v/v) Nonidet-P40 (Sigma)] was added and the mixture was incubated for 15 min at 22° C. to allow pre-binding of the test compounds to the enzyme before the start of the kinase reaction. Then the kinase reaction was started by the addition of 3 μL of a solution of adenosine-tri-phosphate (ATP, 3.3 mM=>final conc. in the 5 μL assay volume is 2 mM) and substrate (0.1 μM=>final conc. in the 5 μL assay volume is 0.06 μM) in assay buffer and the resulting mixture was incubated for a reaction time of 30 min at 22° C. The concentration of MKNK1 was adjusted depending of the activity of the enzyme lot and was chosen appropriate to have the assay in the linear range, typical concentrations were in the range of 0.003 μg/mL. The reaction was stopped by the addition of 5 μL of a solution of TR-FRET detection reagents (5 nM streptavidine-XL665 [Cisbio Bioassays, Codolet, France] and 1 nM anti-ribosomal protein S6 (pSer236)-antibody from Invitrogen [#44921G] and 1 nM LANCE EU-W1024 labeled ProteinG [Perkin-Elmer, product no. AD0071]) in an aqueous EDTA-solution (100 mM EDTA, 0.1% (w/v) bovine serum albumin in 50 mM HEPES pH 7.5).
The resulting mixture was incubated for 1 h at 22° C. to allow the formation of complex between the phosphorylated biotinylated peptide and the detection reagents. Subsequently the amount of phosphorylated substrate was evaluated by measurement of the resonance energy transfer from the Eu-chelate to the streptavidine-XL. Therefore, the fluorescence emissions at 620 nm and 665 nm after excitation at 350 nm were measured in a TR-FRET reader, e.g. a Rubystar (BMG Labtechnologies, Offenburg, Germany) or a Viewlux (Perkin-Elmer). The ratio of the emissions at 665 nm and at […] was taken as the measure for the amount of phosphorylated substrate. The data were normalised (enzyme reaction without inhibitor=0% inhibition, all other assay components but no enzyme=100% inhibition).

Row | Structure (SMILES) | IC50 [nM]
1 | CSc1cc2[nH]ncc2cc1Nc1ncnc2sc3c(c12)CCNC3 [Example 1, N-[6-(Methylsulfanyl)-1H-indazol-5-yl]-5,6,7,8-tetrahydropyrido[4′,3′:4,5]thieno[2,3-d]pyrimidin-4-amine] | 24
2 | CSc1cc2[nH]ncc2cc1Nc1ncnc2sc3c(c12)CCN(C(=O)OC(C)(C)C)C3 [Example 2, tert-Butyl 4-{[6-(methylsulfanyl)-1H-indazol-5-yl]amino}-5,8-dihydropyrido[4′,3′:4,5]thieno[2,3-d]pyrimidine-7(6H)-carboxylate] | 16
3 | CC(C)(C)OC(=O)N1CCc2c(sc3ncnc(Nc4ccc5[nH]c(=O)sc5c4)c23)C1 [Example 3, tert-Butyl 4-[(2-oxo-2,3-dihydro-1,3-benzothiazol-6-yl)amino]-5,8-dihydropyrido[4′,3′:4,5]thieno[2,3-d]pyrimidine-7(6H)-carboxylate] | 71
4 | COc1cc2[nH]ncc2cc1Nc1ncnc2sc3c(c12)CCN(C(=O)OC(C)(C)C)C3 [Example 4, tert-Butyl 4-[(6-methoxy-1H-indazol-5-yl)amino]-5,8-dihydropyrido[4′,3′:4,5]thieno[2,3-d]pyrimidine-7(6H)-carboxylate] | 6
5 | CC(C)(C)OC(=O)N1CCc2c(sc3ncnc(Nc4ccc5[nH]ncc5c4)c23)C1 [Example 5, tert-Butyl 4-(1H-indazol-5-ylamino)-5,8-dihydropyrido[4′,3′:4,5]thieno[2,3-d]pyrimidine-7(6H)-carboxylate] | 18
6 | CC(C)(C)OC(=O)N1CCc2c(sc3ncnc(Nc4cnc5[nH]ncc5c4)c23)C1 [Example 6, tert-Butyl 4-(1H-pyrazolo[3,4-b]pyridin-5-ylamino)-5,8-dihydropyrido[4′,3′:4,5]thieno[2,3-d]pyrimidine-7(6H)-carboxylate] | 47
7 | COc1cc2[nH]ncc2cc1Nc1ncnc2sc3c(c12)CCNC3 [Example 8, N-(6-Methoxy-1H-indazol-5-yl)-5,6,7,8-tetrahydropyrido[4′,3′:4,5]thieno[2,3-d]pyrimidin-4-amine] | 13
8 | COc1cc2[nH]ncc2cc1Nc1ncnc2sc3c(c12)CCN(C(=O)CCCS(C)(=O)=O)C3 [Example 9, 1-{4-[(6-Methoxy-1H-indazol-5-yl)amino]-5,8-dihydropyrido[4′,3′:4,5]thieno[2,3-d]pyrimidin-7(6H)-yl}-4-(methylsulfonyl)butan-1-one] | 2
9 | FC(F)(F)CN1CCc2c(sc3ncnc(Nc4cnc5[nH]ncc5c4)c23)C1 [Example 10, N-(1H-Pyrazolo[3,4-b]pyridin-5-yl)-7-(2,2,2-trifluoroethyl)-5,6,7,8-tetrahydropyrido[4′,3′:4,5]thieno[2,3-d]pyrimidin-4-amine] | 79
10 | CSc1cc2[nH]ncc2cc1Nc1ncnc2sc3c(c12)CCN(CC(F)(F)F)C3 [Example 11, N-[6-(Methylsulfanyl)-1H-indazol-5-yl]-7-(2,2,2-trifluoroethyl)-5,6,7,8-tetrahydropyrido[4′,3′:4,5]thieno[2,3-d]pyrimidin-4-amine] | 15
11 | COc1cc2[nH]ncc2cc1Nc1ncnc2sc3c(c12)CCN(CC(F)(F)F)C3 [Example 12, N-(6-Methoxy-1H-indazol-5-yl)-7-(2,2,2-trifluoroethyl)-5,6,7,8-tetrahydropyrido[4′3′:4,5]thieno[2,3-d]pyrimidin-4-amine] | 99
12 | CN(C)C(=O)N1CCc2c(sc3ncnc(Nc4ccc5[nH]c(=O)sc5c4)c23)C1 [Example 17, N,N-Dimethyl-4-[(2-oxo-2,3-dihydro-1,3-benzothiazol-6-yl)amino]-5,8-dihydropyrido[4′,3′:4,5]thieno[2,3-d]pyrimidine-7(6H)-carboxamide] | 88
13 | CC(C)C(=O)N1CCc2c(sc3ncnc(Nc4ccc5[nH]c(=O)sc5c4)c23)C1 [Example 18, 6-[(7-Isobutyryl-5,6,7,8-tetrahydropyrido[4′,3′:4,5]thieno[2,3-d]pyrimidin-4-yl)amino]-1,3-benzothiazol-2(3H)-one] | 113
14 | CC(C)C(=O)N1CCc2c(sc3ncnc(Nc4ccc5[nH]ncc5c4)c23)C1 [Example 19, 1-[4-(1H-indazol-5-ylamino)-5,8-dihydropyrido[4′,3′:4,5]thieno[2,3-d]pyrimidin-7(6H)-yl]-2-methylpropan-1-one] | 15
15 | COc1cc2[nH]ncc2cc1Nc1ncnc2sc3c(c12)CCN(C(=O)C(C)C)C3 [Example 22, 1-{4-[(6-Methoxy-1H-indazol-5-yl)amino]-5,8-dihydropyrido[4′,3′:4,5]thieno[2,3-d]pyrimidin-7(6H)-yl}-2-methylpropan-1-one] | 4

Results, then the compound that gave them:

Row | IC50 [nM] | Structure (SMILES)
16 | 79 | CC(C)(C)OC(=O)N1CCc2c(sc3ncnc(Nc4cc5cn[nH]c5cn4)c23)C1 [Example 7, tert-Butyl 4-(1H-pyrazolo[3,4-c]pyridin-5-ylamino)-5,8-dihydropyrido[4′,3′:4,5]thieno[2,3-d]pyrimidine-7(6H)-carboxylate]
17 | 48 | CN(C)C(=O)N1CCc2c(sc3ncnc(Nc4cnc5[nH]ncc5c4)c23)C1 [Example 13, N,N-Dimethyl-4-(1H-pyrazolo[3,4-b]pyridin-5-ylamino)-5,8-dihydropyrido[4′,3′:4,5]thieno[2,3-d]pyrimidine-7(6H)-carboxamide]
18 | 30 | CN(C)C(=O)N1CCc2c(sc3ncnc(Nc4cc5cn[nH]c5cn4)c23)C1 [Example 14, N,N-Dimethyl-4-(1H-pyrazolo[3,4-c]pyridin-5-ylamino)-5,8-dihydropyrido[4′,3′:4,5]thieno[2,3-d]pyrimidine-7(6H)-carboxamide]
19 | 32 | CN(C)C(=O)N1CCc2c(sc3ncnc(Nc4ccc5[nH]ncc5c4)c23)C1 [Example 15, 4-(1H-Indazol-5-ylamino)-N,N-dimethyl-5,8-dihydropyrido[4′,3′:4,5]thieno[2,3-d]pyrimidine-7(6H)-carboxamide]
20 | 4 | COc1cc2[nH]ncc2cc1Nc1ncnc2sc3c(c12)CCN(C(=O)N(C)C)C3 [Example 16, 4-[(6-Methoxy-1H-indazol-5-yl)amino]-N,N-dimethyl-5,8-dihydropyrido[4′,3′:4,5]thieno[2,3-d]pyrimidine-7(6H)-carboxamide]
21 | 28 | CC(C)C(=O)N1CCc2c(sc3ncnc(Nc4cc5cn[nH]c5cn4)c23)C1 [Example 20, 2-Methyl-1-[4-(1H-pyrazolo[3,4-c]pyridin-5-ylamino)-5,8-dihydropyrido[4′,3′:4,5]thieno[2,3-d]pyrimidin-7(6H)-yl]propan-1-one]
22 | 40 | CC(C)C(=O)N1CCc2c(sc3ncnc(Nc4cnc5[nH]ncc5c4)c23)C1 [Example 21, 2-Methyl-1-[4-(1H-pyrazolo[3,4-b]pyridin-5-ylamino)-5,8-dihydropyrido[4′,3′:4,5]thieno[2,3-d]pyrimidin-7(6H)-yl]propan-1-one]
23 | 25 | CS(=O)(=O)N1CCc2c(sc3ncnc(Nc4cc5cn[nH]c5cn4)c23)C1 [Example 23, 7-(Methylsulfonyl)-N-(1H-pyrazolo[3,4-c]pyridin-5-yl)-5,6,7,8-tetrahydropyrido[4′,3′:4,5]thieno[2,3-d]pyrimidin-4-amine]
24 | 28 | O=C(N1CCOCC1)N1CCc2c(sc3ncnc(Nc4cc5cn[nH]c5cn4)c23)C1 [Example 24, Morpholin-4-yl[4-(1H-pyrazolo[3,4-c]pyridin-5-ylamino)-5,8-dihydropyrido[4′,3′:4,5]thieno[2,3-d]pyrimidin-7(6H)-yl]methanone]
